Here are results for 22 molecules from PubChem BioAssay (NCI).

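Exposure lasted 48 hours, with cells grown in 96-well plates and compounds tested at five concentrations. Abbreviation: GI50, concentration required for 50% inhibition of growth. TGI is the concentration that stops growth completely.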 Bounds are passed on as bounds.

Some test systems named below: DMS 114 small cell lung; M19-MEL melanoma; KM20L2 colon; RXF-631 renal; HOP-18 NSCLC; DMS 273 small cell lung; LXFL 529 NSCLC; XF 498 CNS; MDA-N; SN12K1 renal; P388/ADR leukemia; P388 leukemia.
Common to all, as to assay: NCI tumour cell line growth inhibition, 48 h

Consider `Cc1ccccc1NC(=O)/C(=N\NC(N)=S)C(C#N)c1ccccc1` (stereo not drawn), for which the TGI in the experiment on DMS 114 small cell lung, in the experiment on M19-MEL melanoma, with KM20L2 colon, with RXF-631 renal, with HOP-18 NSCLC and in the experiment on DMS 273 small cell lung was over 100 µM each time. The molecule also registered a TGI in the experiment on LXFL 529 NSCLC of over 100 µM.
Turning to `CN(c1ccccc1)c1cc2ccccc2nn1`, the TGI with DMS 114 small cell lung, with M19-MEL melanoma, with XF 498 CNS, with KM20L2 colon, in the experiment with RXF-631 renal and in the experiment on HOP-18 NSCLC was over 100 µM throughout. Moreover, the TGI in the experiment on DMS 273 small cell lung and with LXFL 529 NSCLC was over 100 µM throughout.
With `O=C(NC1CC1)c1c(O)[nH]c(=S)[nH]c1=O`, the TGI in the experiment with DMS 114 small cell lung, with M19-MEL melanoma, in the experiment on KM20L2 colon, in the experiment on RXF-631 renal, in the experiment with HOP-18 NSCLC and with LXFL 529 NSCLC was over 100 µM in each case.
For the molecule `CC1(C)c2ccccc2N2C(c3ccccc3)=NOC21C` (stereo not drawn), the TGI in the experiment on DMS 114 small cell lung, with M19-MEL melanoma, in the experiment on KM20L2 colon, in the experiment with RXF-631 renal, in the experiment with HOP-18 NSCLC and with DMS 273 small cell lung was over 100 µM throughout. In the experiment with LXFL 529 NSCLC, the TGI is over 100 µM.
For `CC1OC(n2cc(C(F)(F)F)c(=O)[nH]c2=O)C=CC1=O` (stereo not drawn), the TGI in the experiment on M19-MEL melanoma worked out at 43.3 µM; with XF 498 CNS, 30.3 µM; with KM20L2 colon it was 48.1 µM; in the experiment on RXF-631 renal it was 25.3 µM; in the experiment with LXFL 529 NSCLC it was 31.6 µM.
In the case of `CC(=O)OCC1OC(n2cccnc2=O)C(OC(C)=O)C1OC(C)=O` (stereo not drawn), the TGI in the experiment on DMS 114 small cell lung, in the experiment with M19-MEL melanoma, in the experiment with XF 498 CNS, in the experiment on KM20L2 colon, in the experiment on RXF-631 renal and in the experiment on HOP-18 NSCLC was over 100 µM each time. In addition, the TGI with DMS 273 small cell lung and with LXFL 529 NSCLC was over 100 µM in each case.
With `CN(C)NC1=C([N+](=O)[O-])C=NN(c2ccccc2)C1`, the TGI was determined as 3.33 µM with DMS 114 small cell lung; 3.23 µM with M19-MEL melanoma; 3.93 µM in the experiment with XF 498 CNS; 3.54 µM in the experiment on KM20L2 colon; 3.33 µM with RXF-631 renal; 3.25 µM in the experiment on HOP-18 NSCLC. Besides, the TGI was 3.18 µM in the experiment on DMS 273 small cell lung and 3.03 µM with LXFL 529 NSCLC.
`N#C/C(=C\c1c(O)cc(O)cc1O)C(N)=O`: the TGI in the experiment on DMS 114 small cell lung, in the experiment on XF 498 CNS, in the experiment with KM20L2 colon, with RXF-631 renal, in the experiment on DMS 273 small cell lung and in the experiment on LXFL 529 NSCLC was over 100 µM throughout.
Turning to `Cc1cccc(C)c1NC(=O)CCC(=O)NC(N)=NC#N`, the TGI in the experiment with DMS 114 small cell lung, in the experiment on M19-MEL melanoma, with XF 498 CNS, in the experiment on KM20L2 colon, in the experiment with RXF-631 renal and in the experiment with HOP-18 NSCLC was over 100 µM throughout. In the experiment on LXFL 529 NSCLC, this molecule registered a TGI of over 100 µM.
In the case of `Cn1[nH]cc2ccc3nc4ccccc4c(=O)c3c21`, the TGI in the experiment with DMS 114 small cell lung is over 100 µM; with M19-MEL melanoma it was 46.8 µM; in the experiment on KM20L2 colon it was over 100 µM; in the experiment with RXF-631 renal, over 66.1 µM; in the experiment on HOP-18 NSCLC it was over 100 µM; with DMS 273 small cell lung, over 100 µM. Moreover, the TGI with LXFL 529 NSCLC is over 100 µM.
For the molecule `Brc1ccccc2cc(-c3ccccc3)nc1-2`, the TGI in the experiment on DMS 114 small cell lung is 6.12 µM; in the experiment on MDA-N, 29.4 µM; in the experiment with XF 498 CNS it was 3.44 µM; with RXF-631 renal, over 53.3 µM; in the experiment on HOP-18 NSCLC it was 13.9 µM; with DMS 273 small cell lung it was 16.4 µM. Moreover, the TGI in the experiment on LXFL 529 NSCLC worked out at 3.25 µM.
Consider `Cc1ccccc1NC(=O)Cc1nc2ccccc2s1`, for which the TGI with XF 498 CNS came to 27.6 µM; with KM20L2 colon, 36.6 µM; in the experiment with RXF-631 renal, 32.3 µM; in the experiment on HOP-18 NSCLC it was 17.2 µM; in the experiment with DMS 273 small cell lung, 37.6 µM; with LXFL 529 NSCLC, 29.9 µM.
In the case of `CNC(=O)ON(C(C)=O)C(=O)NC`, the TGI amounted to 126 µM in the experiment with DMS 114 small cell lung; 401 µM in the experiment on M19-MEL melanoma; 192 µM with SN12K1 renal; 73.6 µM in the experiment with MDA-N; 111 µM in the experiment with P388/ADR leukemia; 131 µM in the experiment with XF 498 CNS. The TGI in the experiment on P388 leukemia was 62.4 µM; in the experiment with KM20L2 colon it was 324 µM; in the experiment on HOP-18 NSCLC, 242 µM; in the experiment with DMS 273 small cell lung, 241 µM. Further, the GI50 in the experiment with MDA-N was over 85.8 µM.
`COC(=O)C1=CC2C(=O)OC1C1C(=O)NC(=O)C21` (stereo not drawn): the TGI in the experiment with DMS 114 small cell lung, with M19-MEL melanoma, in the experiment with XF 498 CNS, with KM20L2 colon, with RXF-631 renal and in the experiment on HOP-18 NSCLC was over 100 µM in each case. Further, the TGI in the experiment with DMS 273 small cell lung and in the experiment with LXFL 529 NSCLC was over 100 µM in each case.
Turning to `O=C(/C=C/c1ccc(Cl)c(Cl)c1)c1ccccc1Cl`, the TGI worked out at 11.2 µM in the experiment on DMS 114 small cell lung; 17.2 µM in the experiment on M19-MEL melanoma; 33.3 µM in the experiment on XF 498 CNS; 23.7 µM in the experiment on KM20L2 colon; 31.4 µM with RXF-631 renal; 25.3 µM with HOP-18 NSCLC. Besides, the TGI in the experiment on DMS 273 small cell lung came to 14.5 µM; in the experiment with LXFL 529 NSCLC, 19.6 µM.
As to `CCC12C=CCN(CCc3c([nH]c4ccccc34)/C=C\1)C2` (stereo not drawn), the TGI with DMS 114 small cell lung, with M19-MEL melanoma, with XF 498 CNS, in the experiment with KM20L2 colon, in the experiment on RXF-631 renal and in the experiment on HOP-18 NSCLC was over 100 µM in each case. Further, the TGI with DMS 273 small cell lung and in the experiment with LXFL 529 NSCLC was over 100 µM throughout.
In the case of `N#C/C(=C\c1cc(O)c(O)c(O)c1)C(N)=O`, the TGI in the experiment with DMS 114 small cell lung, in the experiment on M19-MEL melanoma, with MDA-N, in the experiment with XF 498 CNS, in the experiment with KM20L2 colon and in the experiment with RXF-631 renal was over 100 µM each time. In addition, the TGI with DMS 273 small cell lung and in the experiment on LXFL 529 NSCLC was over 100 µM each time.
Regarding `O=c1nc2sc3ccccc3c(=O)n2[nH]1`, the TGI with M19-MEL melanoma, in the experiment with XF 498 CNS, in the experiment with KM20L2 colon, with RXF-631 renal, with HOP-18 NSCLC and with DMS 273 small cell lung was over 100 µM each time. Further, the TGI in the experiment on LXFL 529 NSCLC is over 100 µM.
With `C/C=C(\N=C=S)C(=O)OC1C(COC(C)=O)OC([C@]2(O)CC(=O)C(=N)C(C(=O)O)=C2O)C(O)C1OC1CC(OC)C(O)([C@@H](C)OC(=O)[C@@H](C)CC)C(C)O1` (stereo partly drawn), the TGI with DMS 114 small cell lung is 14.9 µM; in the experiment with M19-MEL melanoma it was 6.24 µM; with MDA-N, 26.5 µM; with XF 498 CNS, 5.92 µM; with KM20L2 colon, 18.5 µM; with HOP-18 NSCLC, 30.4 µM. Moreover, the TGI in the experiment with DMS 273 small cell lung is 32.1 µM; in the experiment with LXFL 529 NSCLC, 4.16 µM.
As for `Cc1cccc(NC(=O)C(=O)C(C2OC(=O)c3ccccc32)[N+](=O)[O-])c1C` (stereo not drawn), the TGI with DMS 114 small cell lung worked out at 10.3 µM; with M19-MEL melanoma it was 3.91 µM; in the experiment on XF 498 CNS it was 18.7 µM; in the experiment on KM20L2 colon it was 42.7 µM; in the experiment on RXF-631 renal, 33.7 µM; in the experiment on HOP-18 NSCLC, 22.3 µM. Further, the TGI in the experiment with DMS 273 small cell lung turned out to be 10.3 µM; in the experiment with LXFL 529 NSCLC, 20.3 µM.
On to `O=C1c2ccccc2C(=O)N1CCCOCc1c[nH]c(=O)[nH]c1=O`, for which the TGI in the experiment on DMS 114 small cell lung, in the experiment with M19-MEL melanoma, in the experiment with XF 498 CNS, in the experiment on KM20L2 colon, with RXF-631 renal and in the experiment with HOP-18 NSCLC was over 100 µM in each case. Further, the TGI in the experiment on DMS 273 small cell lung and in the experiment with LXFL 529 NSCLC was over 100 µM each time.
Take `CN(C)NC(=O)/C(=C/c1ccc(Cl)cc1)NC(=O)c1ccccc1`: the TGI in the experiment with M19-MEL melanoma, with XF 498 CNS, in the experiment with KM20L2 colon, in the experiment with RXF-631 renal, with HOP-18 NSCLC and with DMS 273 small cell lung was over 100 µM throughout. The same molecule came in with a TGI with LXFL 529 NSCLC of over 100 µM.
